Experimental data as given in patent US12286435B2, “Compound having benzo seven-membered ring structure, preparation method therefor, and use thereof” (BIONNA (BEIJING) MEDICAL TECHNOLOGY CO., LTD., priority 2019, dated 2025).
Like-named read-outs stand apart in the source and are kept apart here.

Tests used:
BRD4 BD2 protein = BRD4 BD2 protein (Homo sapiens (Human), UniProt O60885); experiment: Fluorescence polarization binding affinity (Ki) with BRD4 BD2 protein
BRD4 BD1 protein = BRD4 BD1 protein (Homo sapiens (Human), UniProt O60885); experiment: Fluorescence polarization binding affinity (Ki) with BRD4 BD1 protein
[1] = fluorescence polarization, Ki calculated from IC50

Compound | Ki (BRD4 BD2 protein; [1]) [µM] | Ki (BRD4 BD1 protein; [1]) [µM] | Ki (BRD4 BD2 protein) [µM] | Ki (BRD4 BD1 protein) [µM]
CCC(C)N1CC=C(c2ccc3c(c2)C(Nc2ccc(Cl)cc2)CCn2nnc(C)c2-3)CC1 (stereo not shown) [LD17, 9-(1-(sec-butyl)-1,2,3,6-tetrahydropyridin-4-yl)-N-(4-chlorophenyl)-1-methyl-6,7-dihydro-5H-benzo[c][1,2,3]triazolo[1,5-a]azepin-7-amine 2,2,2-trifluoroacetate] | 0.051 | 0.616 | – | –
Cc1nnn2c1-c1ccc(C3=CCNC3)cc1C(Nc1cccc(O)c1)CC2 (stereo not shown) [BJ183, 3-((9-(2,5-dihydro-1H-pyrrol-3-yl)-1-methyl-6,7-dihydro-5H-benzo[d][1,2,3]triazolo[1,5-a]azepin-7-yl)amino)phenol 2,2,2-trifluoroacetate] | 0.045 | 0.939 | – | –
CCN1CC=C(c2ccc3c(c2)C(Nc2cc(Cl)ccc2F)CCn2nnc(C)c2-3)CC1 (stereo not shown) [RD123, N-(5-chloro-2-fluorophenyl)-9-(1-ethyl-1,2,3,6-tetrahydropyridin-4-yl)-1-methyl-6,7-dihydro-5H-benzo[c][1,2,3]triazolo[1,5-a]azepin-7-amine 2,2,2-trifluoroacetate] | – | – | 0.0408 | 1.09
Cc1nnn2c1-c1ccc(C3=CCN(C4CCCCC4)CC3)cc1C(Nc1cccc(S(C)(=O)=O)c1)CC2 (stereo not shown) [BI57, 9-(1-cyclohexyl-1,2,3,6-tetrahydropyridin-4-yl)-1-methyl-N-(3-(methylsulfonyl)phenyl)-6,7-dihydro-5H-benzo[c][1,2,3]triazolo[1,5-a]azepin-7-amine 2,2,2-trifluoroacetate] | 0.147 | 3.61 | – | –
CCC(C)N1CC=C(c2ccc3c(c2)C(Nc2cccc(Cl)c2)CCn2nnc(C)c2-3)CC1 (stereo not shown) [BH87, 9-(1-(sec-butyl)-1,2,3,6-tetrahydropyridin-4-yl)-N-(3-chlorophenyl)-1-methyl-6,7-dihydro-5H-benzo[c][1,2,3]triazolo[1,5-a]azepin-7-amine 2,2,2-trifluoroacetate] | 0.0445 | 1.1 | – | –
Cc1nnn2c1-c1ccc(C3=CCNCC3)cc1C(Nc1cccc3[nH]ccc13)CC2 (stereo not shown) [WA78, 2,2,2-trifluoroacetate] | 0.0198 | 0.281 | – | –
Cc1nnn2c1-c1ccc(-c3cnn(C)c3)cc1C(Nc1ccccc1C#N)CC2 (stereo not shown) [LC136, 2-((1-methyl-9-(1-methyl-1H-pyrazol-4-yl)-6,7-dihydro-5H-benzo[c][1,2,3]triazolo[1,5-a]azepin-7-yl)amino)benzonitrile] | 0.00883 | 0.0497 | – | –
Cc1nnn2c1-c1ccc(C3=CCN(C(C)C)CC3)cc1C(Nc1cccc(C#N)c1)CC2 (stereo not shown) [BI34, 3-((9-(1-isopropyl-1,2,3,6-tetrahydropyridin-4-yl)-1-methyl-6,7-dihydro-5H-benzo[c][1,2,3]triazolo[1,5-a]azepine7-yl)amino)benzonitrile 2,2,2-trifluoroacetate] | 0.291 | 4.2 | – | –
Cc1nnn2c1-c1ccc(C3=CCNCC3)cc1C(Nc1ccccc1C#N)CC2 (stereo not shown) [RC116, 2-((1-methyl-9-(1,2,3,6-tetrahydropyridin-4-yl)-6,7-dihydro-5H-benzo[c][1,2,3]triazolo[1,5-a]azepin-7-yl)amino)benzonitrile 2,2,2-trifluoroacetate] | 0.115 | 1 | – | –
CCN1CC=C(c2ccc3c(c2)C(Nc2cccc(Cl)c2F)CCn2nnc(C)c2-3)CC1 (stereo not shown) [RD115, N-(3-chloro-2-fluorophenyl)-9-(1-ethyl-1,2,3,6-tetrahydropyridin-4-yl)-1-methyl-6,7-dihydro-5H-benzo[c][1,2,3]triazolo[1,5-a]azepin-7-amine 2,2,2-trifluoroacetate] | 0.0591 | 1.13 | – | –
Cc1nnn2c1-c1ccc(C3=CCNCC3)cc1C(Nc1cc(F)cc(Cl)c1)CC2 (stereo not shown) [BH06, N-(3-chloro-5-fluorophenyl)-1-methyl-9-(1,2,3,6-tetrahydropyridin-4-yl)-6,7-dihydro-5H-benzo[c][1,2,3]triazolo[1,5-a]azepin-7-amine 2,2,2-trifluoroacetate] | 0.0357 | 0.596 | – | –
Cc1nnn2c1-c1ccc(C3=CCNCC3)cc1C(Nc1ccc(OCCO)cc1)CC2 (stereo not shown) [LC133, 2-(4-((1-methyl-9-(1,2,3,6-tetrahydropyridin-4-yl)-6,7-dihydro-5H-benzo[c][1,2,3]triazolo[1,5-a]azepin-7-yl)amino)phenoxy)ethan-1-ol 2,2,2-trifluoroacetate] | 0.207 | 2.19 | – | –
Cc1nnn2c1-c1ccc(C3=CCN(C4CCC4)CC3)cc1C(Nc1cccc(Cl)c1F)CC2 (stereo not shown) [RE30, N-(3-chloro-2-fluorophenyl)-9-(1-cyclobutyl-1,2,3,6-tetrahydropyridin-4-yl)-1-methyl-6,7-dihydro-5H-benzo[c][1,2,3]triazolo[1,5-a]azepin-7-amine 2,2,2-trifluoroacetate] | – | – | 0.0302 | 0.413
Cc1nnn2c1-c1ccc(C3=CCN(C4CCC4)CC3)cc1C(Nc1cccc(S(C)(=O)=O)c1)CC2 (stereo not shown) [BI61, 9-(1-cyclobutyl-1,2,3,6-tetrahydropyridin-4-yl)-1-methyl-N-(3-(methylsulfonyl)phenyl)-6,7-dihydro-5H-benzo[c][1,2,3]triazolo[1,5-a]azepin-7-amine 2,2,2-trifluoroacetate] | 0.148 | 3.2 | – | –
COc1cccc(NC2CCn3nnc(C)c3-c3ccc(C4=CCNCC4)cc32)c1 (stereo not shown) [LC159, N-(3-methoxyphenyl)-1-methyl-9-(1,2,3,6-tetrahydropyridin-4-yl)-6,7-dihydro-5H-benzo[c][1,2,3]triazolo[1,5-a]azepin-7-amine 2,2,2-trifluoroacetate] | 0.0654 | 2.13 | – | –
Cc1nnn2c1-c1ccc(C3=CCNCC3)cc1C(Nc1cc(Cl)ccc1F)CC2 (stereo not shown) [LD08, N-(5-chloro-2-fluorophenyl)-1-methyl-9-(1,2,3,6-tetrahydropyridin-4-yl)-6,7-dihydro-5H-benzo[c][1,2,3]triazolo[1,5-a]azepin-7-amine 2,2,2-trifluoroacetate] | 0.0623 | 1.27 | – | –
Cc1nnn2c1-c1ccc(C3=CCN(C4CCC4)CC3)cc1C(Nc1ccc(F)c(Cl)c1)CC2 (stereo not shown) [BI23, N-(3-chloro-4-fluorophenyl)-9-(1-cyclobutyl-1,2,3,6-tetrahydropyridin-4-yl)-1-methyl-6,7-dihydro-5H-benzo[c][1,2,3]triazolo[1,5-a]azepin-7-amine 2,2,2-trifluoroacetate] | 0.0573 | 1.06 | – | –
COc1ccc2c(c1)C(Nc1ccc(Cl)cc1)CCc1onc(C)c1-2 (stereo not shown) [FA02, N-(4-chlorophenyl)-8-methoxy-1-methyl-5,6-dihydro-4H-benzo[6,7]cyclohepta[1,2-d]isoxazol-6-amine] | 0.0371 | 0.0583 | – | –
Cc1nnn2c1-c1ccc(C3=CCN(C(C)C)CC3)cc1C(Nc1ccc(F)c(Cl)c1)CC2 (stereo not shown) [BI24, N-(3-chloro-4-fluorophenyl)-9-(1-isopropyl-1,2,3,6-tetrahydropyridin-4-yl)-1-methyl-6,7-dihydro-5H-benzo[c][1,2,3]triazolo[1,5-a]azepin-7-amine 2,2,2-trifluoroacetate] | 0.0864 | 5.41 | – | –
Cc1nnn2c1-c1ccc(C3=CCNCC3)cc1C(Nc1ccc3[nH]ccc3c1)CC2 (stereo not shown) [WA82, N-(1H-indo1-5-yl)-1-methyl-9-(1,2,3,6-tetrahydropyridin-4-yl)-6,7-dihydro-5H-benzo[c][1,2,3]triazolo[1,5-a]azepin-7-amine 2,2,2-trifluoroacetate] | 0.0536 | 0.436 | – | –
CCn1cc(-c2ccc3c(c2)C(Nc2ccc(Cl)cc2)CCc2onc(C)c2-3)cn1 (stereo not shown) [LA93, N-(4-chlorophenyl)-1-methyl-8-(1-ethyl-1H-pyrazol-4-yl)-5,6-dihydro-4H-benzo[6,7]cyclohepta[1,2-d]isoxazol-6-amine] | 0.0467 | 0.0763 | – | –
COc1cccc(NC2CCn3nnc(C)c3-c3ccc(C4=CCN(C)CC4)cc32)c1 (stereo not shown) [BH23, N-(3-methoxyphenyl)-1-methyl-9-(1-methyl-1,2,3,6-tetrahydropyridin-4-yl)-6,7-dihydro-5H-benzo[c][1,2,3]triazolo[1,5-a]azepin-7-amine 2,2,2-trifluoroacetate] | 0.0753 | 0.751 | – | –
CC(=O)N1CC=C(c2ccc3c(c2)C(N(C(C)=O)c2cccc(Cl)c2)CCn2nnc(C)c2-3)CC1 (stereo not shown) [LD13] | – | – | 1.74 | 0.944
CNC(=O)Cc1cccc(NC2CCn3nnc(C)c3-c3ccc(C4=CCNCC4)cc32)c1 (stereo not shown) [LC131] | 0.0863 | 0.835 | – | –
Cc1nnn2c1-c1ccc(-c3cnn(C)c3)cc1C(Nc1cccc(CCN(C)C)c1)CC2 (stereo not shown) [LC101, N-(3-(2-(dimethylamino)ethyl)phenyl)-1-methyl-9-(1-methyl-1H-pyrazol-4-yl)-6,7-dihydro-5H-benzo[c][1,2,3]triazolo[1,5-a]azepin-7-amine] | 0.0136 | 0.089 | – | –
Cc1nnn2c1-c1ccc(-c3cnn(C)c3)cc1C(Nc1c(F)cccc1Cl)CC2 (stereo not shown) [LC185, N-(2-chloro-6-fluorophenyl)-1-methyl-9-(1-methyl-1H-pyrazol-4-yl)-6,7-dihydro-5H-benzo[c][1,2,3]triazolo[1,5-a]azepin-7-amine] | 0.0164 | 0.162 | – | –
CCCN1CC=C(c2ccc3c(c2)C(Nc2cccc(Cl)c2)CCn2nnc(C)c2-3)CC1 (stereo not shown) [BH120, N-(3-chlorophenyl)-1-methyl-9-(1-propyl-1,2,3,6-tetrahydropyridin-4-yl)-6,7-dihydro-5H-benzo[c][1,2,3]triazolo[1,5-a]azepin-7-amine 2,2,2-trifluoroacetate] | 0.0219 | 0.583 | – | –
Cc1nnn2c1-c1ccc(C3=CCNCC3)cc1C(N(C=O)c1cccc(Cl)c1)CC2 (stereo not shown) [LC193, N-(3-chlorophenyl)-N-(1-methyl-9-(1,2,3,6-tetrahydropyridin-4-yl)-6,7-dihydro-5H-benzo[c][1,2,3]triazolo[1,5-a]azepin-7-yl)formamide 2,2,2-trifluoroacetate] | 0.698 | > 4 | – | –
Cc1nnn2c1-c1ccc(C3=CCN(C(C)C)CC3)cc1C(Nc1cccc(Cl)c1F)CC2 (stereo not shown) [RE29, N-(3-chloro-2-fluorophenyl)-9-(1-isopropyl-1,2,3,6-tetrahydropyridin-4-yl)-1-methyl-6,7-dihydro-5H-benzo[c][1,2,3]triazolo[1,5-a]azepin-7-amine 2,2,2-trifluoroacetate] | 0.0658 | 1.55 | – | –
